Consider three molecules from patent publication US11234957B2, “Process for preparing water soluble forskolin” (SciPharm S.à.r.l., priority 2017, dated 2022).

Each structure is given as a SMILES string. Like-named read-outs stand apart in the source and are kept apart here.

For series [1] the following is noted: cited from earlier work.
Series [2] is described as follows: Maximum solubility of forskolin in aqueous hydroxypropyl-cyclodextrin solutions (Laurenza et al., 1987). It counts as physicochemical. The source says:
Aqueous solutions of forskolin had also been produced by dissolving forskolin in solutions of hydroxypropyl-γ-cyclodextrin.

For a further series, the system named is adenylyl cyclase. The experiment in a line: Cell culture test - cAMP assay. It counts as cell-based. The settings on record: versus forskolin dissolved in DMSO; FIG. 4 and summary. As to the method:
The method was performed at the Institute of Pharmacology, Medical University […] of Vienna, Prof. Michael Freissmuth. The forskolin-CD complex was compared with an established method, where forskolin is dissolved and diluted in DMSO. The method has been described previously (Hussain F, et al., BMC Pharmacology 11 (2013), Suppl 2, A6) and is a test platform for the assessment of the chemical induction of stem cells.
Also, the lack of DMSO, which is considered to be a PDE inhibitor (see above), had no […] effect on the results based on preliminary theoretical and practical aspects. The following batches were tested in aliquot molar concentrations as an activator of adenylyl cyclase: […]
In general terms: Changes in cAMP serve as a functional read-out for many G protein-coupled receptors.

For `C=C[C@@]1(C)CC(=O)[C@]2(O)[C@@]3(C)[C@@H](O)CCC(C)(C)[C@@H]3[C@H](O)[C@H](OC(C)=O)[C@@]2(C)O1` [forskolin, 7-beta-acetoxy-8,13-epoxy-1-alpha, 6-beta, 9-alpha-trihydroxylabd-14-en-11-one], the “Maximum solubility of forskolin” value in series [1] (in 40% (w/v) aqueous solution of hydroxypropyl-ß-cyclodextrin) was 2.5 mM; in series [1] (in 40% (w/v) aqueous solution of hydroxypropyl-γ-cyclodextrin), 9.8 mM. For the same molecule, the increase of solubility entry is “approx. 16 fold” in series [2] (in 40% (w/v) hydroxypropyl-ß-cyclodextrin) and “approx. 65 fold” in series [2] (in 40% (w/v) hydroxypropyl-γ-cyclodextrin).
In the case of `COC(=O)[C@@H]1C[C@H](OC(C)=O)C(=O)[C@H]2[C@@]1(C)CC[C@H]1C(=O)O[C@H](c3ccoc3)C[C@]21C` [salvinorin A], the “activation of adenylyl cyclase” value in the series with adenylyl cyclase was “Inactive”.
Same read-out and setting: as for `COC(=O)[C@@H]1C[C@H](O)C(=O)[C@H]2[C@@]1(C)CC[C@H]1C(=O)O[C@H](c3ccoc3)C[C@]21C` [salvinorin B], the entry is “Inactive”.
